Laboratory results published in publication PMC10447463, “Data-mining unveils structure–property–activity correlation of viral infectivity enhancing self-assembling peptides” (Nature Communications, 2023).

Columns and labels:
Assay type in all cases: physicochemical
[1] = β-sheet content by ATR-FT-IR; details: for b -sheet / %: Fig. S7 panel A, β-sheet content by ATR-FT-IR
Outline: (§1)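 β-sheet content came from ATR FT-IR spectra of lyophilized 1 mg/mL nanofibril solution (64 scans, 2 cm^-1 resolution). Conversion was measured by separating free monomer with a 3 kDa cutoff filter, then comparing fluorescamine fluorescence (ex 365/em 470 nm, 20 min RT) of filtrate versus unfiltered sample, in triplicate.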

[2] = Conversion rate (CR) assay with fluorescamine; design: key to CR: % = 100−100×filtrate/original fluorescence intensity
Outline: as §1

[3] = Aggregate analysis by widefield fluorescence microscopy; details: ThT-stained aggregates > 10 µm2 in 1330 µm × 1330 µm; 1 mg/mL 1 d, diluted to 0.1 mg/mL with 50 µM ThT; 3D object counter ImageJ, triplicate
Procedure: 4 µL of 1 mg/mL peptide fibrils solution is added to a 20 µL, 50 µM ThT–solution in PBS. The mixture is incubated for 15 min at RT to allow binding of ThT dye with β–sheet rich structures. For reference PBS (4 µL) was added instead of peptide fibril solution. The samples were placed in black UV Star® 384 microliter well–plates (Greiner bio–one). Fluorescence spectra were recorded on an Infinite® M1000 PRO microplate reader (Tecan) at λem = 488 nm upon excitation at λex = 440 nm with 10 nm bandwidths and multiple reads per well (3×3). Measurements were repeated in triplicates and averaged with standard deviation. A peptide fibril was considered as ThT-active if the fluorescence intensity was at least twice as strong compared to the control (PBS containing 10% DMSO). Zeta-Potential. For the determination of the surface charge of aggregated peptides zeta-potential measurements were conducted with a Zetasizer Nano ZS, Malvern Instruments. Unless stated otherwise the peptides were dissolved from DMSO (10 mg/mL) in PBS (pH 7.4) to concentration of 1 mg/mL and incubated for 1d at RT. Just before the measurement the 60 µL of the peptides were further diluted in 600 µL KCl (aq, 1 mM) in a 1 mL disposable folded capillary cells (DTS–1060, Zetasizer Nano series, Malvern). The zeta potential of the peptides was derived from the electrophoretic mobility based on the Smoluchowski formula. All measurements were averaged over two individually performed experiments and conducted in triplicates for each sample. Aggregate analysis. […] Furthermore, fluorescence microscopy was conducted by staining 1 µL preformed fibrils (1 mg/mL) with 9 µL ThT (50 µM). Brightfield microscopy was performed simultaneously to evaluate aggregation also for non ThT-active fibrils. The measurements were performed on a Leica DMi8 microscope with 10x air objective and equipped with a Leica MC170 HD camera with a filter setting λem = 527/30 nm upon excitation at λex = 480/40 nm) and processed with the Leica LASX software. To quantify size and number of microscopic aggregation of particles > 10 µm^2 at least 3 independently measured images were analyzed via the 3D object counter analysis tool of ImageJ, v 1.53f51. Sum–frequency generation. The SFG experiments were carried out with a femtosecond Ti: Sapphire amplified laser system (Spitfire Ace, Spectra–Physics, 800 nm, 40 fs, 1 kHz) with 5 W output power. We used 2 W to pump an optical parametric amplifier (TOPAS, light conversion) with a non–collinear difference frequency generation stage to generate broadband IR pulses. Another 1 W of the laser output passed through an etalon to generate narrowband visible pulses (10 cm^-1). The incident angles of the visible and IR beams were 36° and 41° with respect to the surface normal, respectively. The visible (13 µJ) and IR (5 µJ) pulses were overlapped spatially and temporally at the sample position. Subsequently, the generated SFG pulse was guided into a spectrograph (Acton SP 300i, Princeton Instruments), and detected with an EMCCD (Newton, Andor Technology). To avoid IR absorption of water vapor, we purged N2 for the measurement. All spectra were collected in the ssp (denoting s-, s- and p-polarized SFG, visible and IR, respectively) polarization combination. The spectra were normalized to the non–resonant signal taken from z–cut quartz after subtracting a background spectrum.
Table S8 Summary of aggregate analysis from widefield microscopy measurements (Figure S32). The Number of aggregated peptides, the median size area, average size area
and the cumulative total size area of all particles (> 10 µm2) in an area of 1330 µm × 1330 µm was determined via automated 3D object counting (ImageJ) in triplicate
measurements (Std. Dev.).
Aggregate Std. Dev. Std. Dev. Std. Dev. Std. Dev.
Sequence Abs. Inf. / Std. Dev. / Count Rate / Std. Dev. Number Aggregate Median Area Median Area Average Area Average Area Total Area/ Total Area/ […]

[4] = Fig. S7 panel B, conversion rate, fluorescamine assay
[5] = conversion rate, fluorescamine assay

Substance | b -sheet / % [1] [%] | CR / % [2, 4] [%] | CR [2, 5] | also measured
CEFEFQF | 53 |  |  | 
CEIEIQI | 45 | 59 | 59 | 
CETMYDKILKNLSRSR | 62.1014 | 98.9 | 98.89 | 
CKFC | 38.87 | 35.9 | 35.92 | 
CKFKFQFNMW | 47.7253 |  |  | 
CKFKFQFNMWQ | 47.05 | 97.5 | 97.52 | 
CKFQC | 43.86 | 33.2 | 33.24 | 
CKIKIQIII | 36.7 |  |  | 
CKIKQIINM | 46 | 45 | 45 | 
CKWKWQW | 34.2 |  |  | Number of Aggregates / Aggregate Number [3]: 87
CKYKYQY | 49.12 |  |  | 
CRFRFQF | 39.77 | 98.1 | 98.13 | 
CRFRVPF | 11.43 | 97.1 | 97.05 | 
EFEFQF | 44.93 |  |  | 
EIEIEIEI | 62.61 |  |  | 
FDPFDPFDP | 48.89 |  |  | 
FKFDKFKFDK | 46.64 |  |  | 
HGDKCHGDKC | 4.749 | 37.4 | 37.3627 | 
HGEHGE | 9.5428 |  |  | 
HGEHGEHGE | 6.271 | 42.9 | 42.88 | 
HHHHEIEIEIEI | 48.37 |  |  | 
HLHLPLL | 49.19 | 37.5 | 37.51 | 
HRRHFRHKITKKK | 45.34 | 44.9 | 44.91 | 
KAKAQA | 40.34 | 0.3 | 0.3138 | 

Substance | b -sheet / % [1] [%] | CR / % [2, 4] [%] | CR [2, 5] | also measured
KAKAQANMWQ | 42.81 | 56.2 | 56.24 | CR / % ([2]; conversion of monomer to nanostructures, 3 kDa MWCO filtration, fluorescamine, ex 365 / em 470 nm, triplicate): 56%; ß-sheet / % ([1]; ATR-FT-IR of lyophilised 1 mg/mL PNF solution, peak integral ratio 1625-1635 cm-1, measured once): 43%
KAKQAANMWQ | 10.94 |  |  | 
KFKFQF | 46 | 67.4 | 67.4 | 
KFKQFFNMWQ | 32.75 |  |  | 
KIKIKIKIYYYY | 56.7 |  |  | beta sheet ([1]; peptides with TEM 2cat 0): 57
KIKIQI | 38.6 | 18.9 | 18.91 | 
KIKIQIAMWQ | 37.48 |  |  | 
KIKIQIN | 41.82 |  |  | 
KIKIQINAWQ | 27.74 |  |  | 
KIKIQINM | 41 | 64 | 64 | 
KIKIQINMAQ | 45.78 |  |  | 
KIKIQINMW | 45.5 |  |  | 
KIKIQINMWA | 49.91 |  |  | 
KIKIQINMWQ | 42.41 | 94.3 | 94.34 | 
KIKQIIN | 37.69 |  |  | Number of Aggregates / Aggregate Number [3]: 12
KIKQIINM | 44 | 43 | 43 | 
KIRGKFEKED | 28.67 |  |  | 
KKFQKKFQ | 40.421 |  |  | 
KNDKND | 43.2531 |  |  | 
KNERIKNERI | 37.95 | 54.4 | 54.36 | 
KVKGVGK | 8.763 |  |  | 
KVKVKVQV | 43.06 |  |  | 
KWKWQW | 30.47 |  |  | Number of Aggregates / Aggregate Number [3]: 28
KYKGAIIGNIK | 44.63 |  |  | 

Substance | b -sheet / % [1] [%] | CR / % [2, 4] [%] | CR [2, 5] | also measured
KYKYQY | 0 |  |  | 
MDQMDQMDQMDQMDQ | 46.09 | 53 | 53.03 | 
MKFKFQF | 21.97 | 86.9 | 86.86 | 
MKFM | 34.63 |  |  | 
NMWQKAKAQA | 37.34 |  |  | 
NMWQKFKFQF | 33.22 |  |  | 
NMWQKIKIQI | 39.24 |  |  | 
NMWQKIKQII | 38.14 |  |  | 
NMWQKVGTPL | 32.26 |  |  | 
PPFHPPPFHP | 46.6563 |  |  | 
QCKAKAQA | 34.06 |  |  | 
QCKFKFQF | 40.03 |  |  | 
QCKFKFQFNM | 37.29 | 98.9 | 98.94 | 
QCKFKFQFNMWQ | 47.0491 | 98.9 | 98.91 | 
QCKIKIQI | 35.27 |  |  | 
QCKIKQII | 40.51 |  |  | 
QCKIKQIINM | 38.44 |  |  | 
RGDKIRGDKI | 15.01 | 48.4 | 48.38 | 
RGECKFKFQF | 46.18 | 98.7 | 98.71 | 
RGEKIKIQINM | 38.16 | 80.3 | 80.28 | 
RLRLTLC | 20.6858 | 87.4 | 87.44 | 
RPRGLLLGNLR | 13.82 |  |  | 
TKTLTKTL | 34.38 |  |  | 
